Nine compounds from US10844051B2, “Substituted oxazoles for the treatment of cancer” (THE ROYAL INSTITUTION FOR THE ADCANCEMENT OF …, priority 2015, dated 2020) can be followed below.

“Also recorded” adds a separate entry of the source.

In one data set the target is T1, ERG (Homo sapiens, UniProt P11308).
T1 sequence (P11308 1-486 isoform P11308-3): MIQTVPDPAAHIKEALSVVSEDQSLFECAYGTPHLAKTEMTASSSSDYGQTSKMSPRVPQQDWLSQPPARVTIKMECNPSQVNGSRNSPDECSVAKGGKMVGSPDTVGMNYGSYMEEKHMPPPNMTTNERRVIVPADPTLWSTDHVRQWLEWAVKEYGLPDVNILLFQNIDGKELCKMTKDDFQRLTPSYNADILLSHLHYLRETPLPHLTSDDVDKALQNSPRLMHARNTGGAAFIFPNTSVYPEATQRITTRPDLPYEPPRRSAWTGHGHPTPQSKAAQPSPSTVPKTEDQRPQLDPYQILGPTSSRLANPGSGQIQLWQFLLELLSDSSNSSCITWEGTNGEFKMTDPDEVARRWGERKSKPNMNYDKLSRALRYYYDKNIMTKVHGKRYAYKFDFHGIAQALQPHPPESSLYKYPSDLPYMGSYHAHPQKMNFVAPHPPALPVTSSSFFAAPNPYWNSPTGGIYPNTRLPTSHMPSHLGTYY
Nature of the data set: ERG-dependent reporter assay in HEK293 cells. It is filed as cell-based. The arrangement: expressed in transfected cells; host or cells: HEK293. The note with it: PUx3-Luc reporter, 48 hours, designated doses. As for the experimental part: (§1) HEK293 cells were transiently transfected with empty vector (for the NT) or ERG-expressing plasmid as well as pRL-TK (internal control) and PUx3-Luc reporter. Cells were then exposed to DMSO vehicle or compounds at designated doses for 48 hours. Experiments were done in triplicate.
For orientation: In a reporter assay the amount or activity of a reporter protein is the signal.

A further data set deals with T2, ESE-1 (Homo sapiens, UniProt P78545).
T2 construct: expressed in transfected cells; host or cells: HEK293
T2 sequence (P78545 1-371): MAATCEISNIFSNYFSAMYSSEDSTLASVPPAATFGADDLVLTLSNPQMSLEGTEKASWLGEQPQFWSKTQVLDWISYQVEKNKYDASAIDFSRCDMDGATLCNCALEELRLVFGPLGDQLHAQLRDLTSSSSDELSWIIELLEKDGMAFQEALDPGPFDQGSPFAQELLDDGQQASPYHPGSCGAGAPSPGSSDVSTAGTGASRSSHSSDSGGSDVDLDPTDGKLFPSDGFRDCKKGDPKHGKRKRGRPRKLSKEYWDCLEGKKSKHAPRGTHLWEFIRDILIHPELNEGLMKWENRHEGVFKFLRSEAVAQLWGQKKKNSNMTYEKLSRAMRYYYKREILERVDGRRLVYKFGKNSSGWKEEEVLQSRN
Nature of the data set: ESE-1 dependent reporter assay in HEK293 cells. It is filed as cell-based. The following applies: 48 hours. As for the experimental part: as §1
Experiments were done as described above in FIG. 1.1a) except that ERG plasmid was replaced by ESE-1 plasmid.

The subject of data set [1] is H23 KRAS-mutant NSCLC cells. Briefly: MTT assay, H23. The format is cell-based. The note with it: endogenous KRAS 12C, 72 hours. The protocol: FIG. 2.7 Compound 673 is cytotoxic in KRAS-mutant NSCLC cells (A549 and H23), but is not toxic the KRAS wild-type NSCLC cells (H322). Cells were exposed to vehicle or compounds (μM) for 72 hours. Viable cells were evaluated by MTT assays.
(§2) Panc 10.05, H23 and HCT-116 cells express endogenous KRAS 12D, 12C and 13D mutants, respectively. Cells were exposed to DMSO vehicle or compounds at designated doses for 72 hours. Experiments were done in triplicate.
(Formazan colour is commonly taken as a measure of viable cells.)

Data set [2] deals with HCT-116 colorectal cancer cells. Nature of the data set: MTT analysis, HCT-116. It is filed as cell-based. The following applies: endogenous KRAS 13D, 72 hours. The protocol:
as §2

In data set [3] the test system is Panc10.05 pancreatic cancer cells. Briefly: MTT analysis, Panc10.05. The format is cell-based. The note with it: endogenous KRAS 12D, 72 hours. The protocol: as §2
In data set [4] the test system is EZH2, c-Myc and ERG expression in VCaP cells. Briefly: Expression of EZH2, c-Myc and ERG in VCaP cells. The format is cell-based. The note with it: 10 μM, 72 hours. The protocol:
VCaP cells were exposed to DMSO vehicle control, 648, 698 and 891 at 10 μM for 72 hours in DMEM medium plus 10% FBS or phenol red-free DMEM medium plus 10% charcoal-stripped FBS (CS-FBS).

For another data set, the target named is T3, human GATA2 (Homo sapiens, UniProt P23769).
T3 construct: expressed in transfected cells; host or cells: IHH
T3 sequence (P23769 1-480): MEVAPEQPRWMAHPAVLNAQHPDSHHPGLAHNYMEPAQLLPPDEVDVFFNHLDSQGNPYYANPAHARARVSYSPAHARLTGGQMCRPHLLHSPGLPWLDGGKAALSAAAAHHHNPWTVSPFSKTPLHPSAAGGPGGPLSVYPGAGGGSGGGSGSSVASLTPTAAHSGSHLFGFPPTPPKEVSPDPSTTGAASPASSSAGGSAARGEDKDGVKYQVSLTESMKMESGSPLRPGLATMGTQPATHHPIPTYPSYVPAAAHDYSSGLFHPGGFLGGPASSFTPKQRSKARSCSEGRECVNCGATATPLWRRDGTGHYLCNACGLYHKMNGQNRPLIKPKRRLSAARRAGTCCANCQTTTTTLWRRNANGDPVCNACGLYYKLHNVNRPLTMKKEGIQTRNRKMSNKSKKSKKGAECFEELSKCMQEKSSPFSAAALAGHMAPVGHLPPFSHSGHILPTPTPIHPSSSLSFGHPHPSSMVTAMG
Briefly: GATA2-dependent reporter assay in IHH cells. It is filed as cell-based. The note with it: GATA-Luc reporter, 48 h. The protocol: K7174 is a known GATA2 inhibitor. The IHH cells were transiently transfected with empty vector (for the NT) or human GATA2-expressing plasmid as well as pRL-TK (internal control) and GATA-Luc reporter plasmids. Cells were exposed to DMSO vehicle or compounds for 48 h. Experiments were in triplicate.

Data set [5] has as its target T4, recombinant protein of human GATA2 (Homo sapiens, UniProt P23769).
T4 sequence (P23769 1-480): T3 sequence (P23769 1-480)
Briefly: SPR analysis on amine-coupled GATA2. The format is binding. The note with it: 50 μM each. From the text:
In embodiments of the invention, the androgen-bound AR is regressing GATA2 expression and inhibition of AR via castration or use of antiandrogen releases such expression. […] Overexpression of GATA2 confers resistance to antiandrogen bicalutamide (Bic) (FIG. 2.9). Compound 673 is effective against the LNCaP stably transfected with GATA2-expressing plasmid (referred to as LNCaP-GATA2 cells) (FIG. 2.8).
A general note: In SPR one partner is held on a chip, and binding of the other changes the refractive index at the surface.

For data set [6], the target named is T5, recombinant human KRAS 12D mutant protein (Homo sapiens, UniProt P01116, G12D).
T5 construct: purchased ORIGENE TP700052
Briefly: SPR analysis on amine-coupled KRAS (G12D mutant). The following applies: for Kd: PBS-T containing 1 μM GDP, steady-state. It is filed as binding. As for the experimental part: FIG. 4.1 SPR analysis. Left panels, SPR sensorgrams for compounds 784 and 895 binding to 3500 RU amine-coupled KRAS (G12D mutant) at 25 μL/min in PBS-T containing 1 μM GDP. Right panels, corresponding non-linear regression analyses of steady-state binding responses versus concentration to determine apparent equilibrium dissociation constants (KD).
Since activation of KRAS leads to activation of NF-kB,^69 we performed in vitro screening of our compounds by KRAS mutant-dependent NF-kB-luc reporter assay in HEK293 cells. […] Also, compounds of the invention are cytotoxic to PANC 10.05 pancreatic cancer cells, H23 NSCLC cells and HCT-116 colorectal cancer cells (FIG. 4.5).

Data set [7] deals with phosphorylation of ERK in HCT-116 cells. Briefly: Western blot, phosphorylation of ERK in HCT-116 cells. The format is cell-based. The following applies: 10 μM, 24 hours. As for the experimental part: HCT-116 cells were exposed to DMSO vehicle or compounds at designated doses for 24 hours.
Data set [8] concerns phosphorylation of ERK in Panc 10.05 cells. Nature of the data set: Western blot, phosphorylation of ERK in Panc 10.05 cells. It is filed as cell-based. The note with it: 24 hours. The protocol:
(§3) C-PARP, cleaved PARP. Panc10.05 cells were exposed to DMSO vehicle or compounds at designated doses for 24 hours.
Panc10.05 cells were exposed to DMSO vehicle or compounds at designated doses for 24 hours.

A further data set deals with Panc 10.05 cells. Briefly: Western blot, apoptosis (cleaved PARP) in Panc 10.05 cells. It is filed as cell-based. The note with it: 24 hours. The protocol:
as §3

For the next data set, the target named is T6, human STING (hSTING) (Homo sapiens, UniProt Q86WV6).
T6 construct: expressed in transfected cells; host or cells: 293T
Nature of the data set: hSTING ISRE-luc reporter assay in 293T cells. It is filed as cell-based. The note with it: 24 hours. The protocol: ISRE-luc (reporter), pRL-TK (internal control) and hSTING-expressing plasmids were transiently transfected into 293T cells. Cells were exposed to DMSO vehicle control or compounds for 24 hours. Experiments were done in triplicate.

In the next data set the target is T7, human GATA3 (Homo sapiens, UniProt P23771).
T7 construct: expressed in transfected cells; host or cells: IHH
Nature of the data set: GATA3-dependent reporter assay in IHH cells. The following applies: 48 hours, 10 μM. The format is cell-based. The protocol: The IHH cells were transiently transfected with empty vector (for the NT) or human GATA3-expressing plasmid as well as pRL-TK (internal control) and GATA-Luc reporter plasmids. Cells were exposed to DMSO vehicle or compounds for 48 hours. Experiments were done in triplicate.

T5 sequence (P01116 1-188 isoform P01116-2 G12D): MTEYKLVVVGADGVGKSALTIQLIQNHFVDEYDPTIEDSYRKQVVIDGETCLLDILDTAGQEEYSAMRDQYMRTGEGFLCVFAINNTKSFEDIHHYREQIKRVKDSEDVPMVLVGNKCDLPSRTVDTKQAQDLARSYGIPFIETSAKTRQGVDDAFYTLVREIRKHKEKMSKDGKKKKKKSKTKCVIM
T6 sequence (Q86WV6 whole entry H232R): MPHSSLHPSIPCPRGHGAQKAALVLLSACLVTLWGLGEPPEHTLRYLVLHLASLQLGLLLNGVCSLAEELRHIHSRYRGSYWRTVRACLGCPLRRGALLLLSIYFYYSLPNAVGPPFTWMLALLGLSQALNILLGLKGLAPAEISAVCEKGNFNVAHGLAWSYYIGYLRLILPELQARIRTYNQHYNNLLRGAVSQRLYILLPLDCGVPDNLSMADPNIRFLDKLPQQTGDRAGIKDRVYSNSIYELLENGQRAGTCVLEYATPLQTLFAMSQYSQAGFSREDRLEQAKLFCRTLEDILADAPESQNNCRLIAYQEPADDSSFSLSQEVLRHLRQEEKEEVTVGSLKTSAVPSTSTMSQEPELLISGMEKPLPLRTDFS
T7 sequence (P23771 whole entry): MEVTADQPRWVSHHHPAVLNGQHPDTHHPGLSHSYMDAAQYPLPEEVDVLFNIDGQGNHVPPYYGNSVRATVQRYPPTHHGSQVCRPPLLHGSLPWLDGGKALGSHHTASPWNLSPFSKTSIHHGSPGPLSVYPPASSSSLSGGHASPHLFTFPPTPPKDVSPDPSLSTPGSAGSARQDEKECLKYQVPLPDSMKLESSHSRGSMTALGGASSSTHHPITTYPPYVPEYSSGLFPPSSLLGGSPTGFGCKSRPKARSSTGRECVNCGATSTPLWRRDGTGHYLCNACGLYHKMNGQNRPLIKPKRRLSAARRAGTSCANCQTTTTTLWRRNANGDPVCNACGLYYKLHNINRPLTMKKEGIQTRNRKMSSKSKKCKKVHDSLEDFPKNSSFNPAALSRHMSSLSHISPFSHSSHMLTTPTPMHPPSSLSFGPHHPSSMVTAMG

For the compound `Fc1ccccc1CSc1ncnc2c1ncn2C1CCCO1` (stereo not drawn) [Compound V131], on ERG, the “ERG inhibition in ERG-dependent reporter assay” value is listed as “potent inhibitor of ERG; also recorded: ERG inhibitors”. Also, the “ESE-1 inhibition in ESE-1 dependent reporter assay” value at ESE-1 is “ESE-1 inhibitors”.
Take `COc1ccc(CC/C(=C/C(=O)N2CCN(c3ccccc3OC)CC2)c2ccccc2)cc1F` [Compound 1261]: the “inhibition of proliferation of H23 cells (MTT)” value in data set [1] was “dose-dependently inhibit proliferation”. In addition, the “inhibition of proliferation of HCT-116 cells (MTT)” value in data set [2] is “dose-dependently inhibit proliferation”. The “inhibition of proliferation of Panc10.05 cells (MTT)” value in data set [3] was “dose-dependently inhibit proliferation”.
Consider `Oc1ccccc1-c1nc(Cc2c[nH]c3ccccc23)oc1-c1ccccc1O` [Compound 891], for which, in [4], the “inhibition of expression of EZH2, c-Myc and ERG” value is “inhibit expression of EZH2, c-Myc and ERG”.
With `O=C(CC(O)(CCc1ccccc1)c1ccccc1)N1CCC(O)(c2ccccc2)CC1` (stereo not drawn) [Compound V248], the “GATA2 inhibition in GATA2-dependent reporter assay” value on human GATA2 is “GATA2 inhibitors”. The “binding to amine-coupled GATA2 (SPR)” value in data set [5] was “Direct binding; also recorded: Specific binding”.
A word on the Kd: it is a measure of binding affinity in units of concentration. As to `COc1ccc(CC/C(=C/C(=O)N2CCC(O)(c3ccccc3)CC2)c2ccccc2)cc1F` [Compound 895], in data set [6], the “direct binding with KRAS G12D mutant (SPR)” value is “Direct binding” and the Kd was 45 µM. Besides, the “suppression of phosphorylation of ERK (Western blot)” value (shortened to “suppression”) in data set [7] is reported as “potently suppressed phosphorylation of ERK”. Besides, the “suppression” value in data set [8] (designated doses) is given as “dose-dependently suppressed phosphorylation of ERK”. Besides, in the data set on Panc 10.05 cells, the “induction of apoptosis (cleaved PARP, Western blot)” value is “induced apoptosis”.
On to `Oc1ccc(-c2nc(Cc3c[nH]c4ccccc34)oc2-c2ccc(O)cc2)cc1` [Compound 698], for which the “inhibition of expression of EZH2, c-Myc and ERG” value in data set [4] was “inhibit expression of EZH2, c-Myc and ERG”. Further, on human STING (hSTING), the “activation of hSTING in ISRE-luc reporter assay” value is reported as “activate hSTING”. For the same compound, the “ERG inhibition in ERG-dependent reporter assay” value at ERG is reported as “ERG inhibitors”. The “ESE-1 inhibition in ESE-1 dependent reporter assay” value on ESE-1 was “ESE-1 inhibitors”.
With `O=C(Cc1c[nH]c2ccccc12)NCc1nc(-c2ccccc2)c(-c2ccccc2)o1` [Compound 784], the “GATA2 inhibition in GATA2-dependent reporter assay” value on human GATA2 is reported as “GATA2 inhibitors”. Also, in [6], the “direct binding with KRAS G12D mutant (SPR)” value is “Direct binding” and the Kd was determined as 190 µM. Moreover, the “suppression” value in [8] (designated doses) is given as “dose-dependently suppressed phosphorylation of ERK”. Also, the “activity against GATA3 in GATA3-dependent reporter assay” value on human GATA3 was “inactive against GATA3”. Moreover, the “induction of apoptosis (cleaved PARP, Western blot)” value in the data set with Panc 10.05 cells is listed as “induced apoptosis”.
On to `N#CCN(CCc1c[nH]c2ccccc12)Cc1nc(-c2cccc(F)c2)c(-c2cccc(F)c2)[nH]1` [Compound 1186], for which, in [1], the “inhibition of proliferation of H23 cells (MTT)” value is recorded as “dose-dependently inhibit proliferation”. The “inhibition of proliferation of HCT-116 cells (MTT)” value in data set [2] was “dose-dependently inhibit proliferation”. Besides, the “suppression” value in data set [7] and in [8] (10 μM) was “potently suppressed phosphorylation of ERK” in each case. Also, the “inhibition of proliferation of Panc10.05 cells (MTT)” value in data set [3] was “dose-dependently inhibit proliferation”.
As to `COc1ccc(-c2nc(CCCc3c[nH]c4ccccc34)oc2-c2ccc(OC)cc2)cc1` [Compound 670], the “binding to amine-coupled GATA2 (SPR)” value in data set [5] is “Direct binding; also recorded: Specific binding”. In addition, at human STING (hSTING), the “activation of hSTING in ISRE-luc reporter assay” value is reported as “activate human STING (hSTING)”.
